This is an account of results in US7320972B2, “4-Biarylyl-1-phenylazetidin-2-ones” (Microbia, Inc., priority 2003, dated 2008).

For this assay, the system named is cholesterol absorption (serum 3H-cholesterol). The assay is described as follows: In Vivo Assay of Hypolipidemic Agents using the Rat Cholesterol Absorption Model. Details: species or system Sprague-Dawley rats. Conditions: peroral; for inhibition in vivo at 1 mg/kg: po. The protocol: In Vivo Assay of Hypolipidemic Agents using the Rat Cholesterol Absorption Model. This model is based on models described by Burnett et al (2002), Bioorg. Med. Chem. Lett. 2002 Feb. 11;12(3):315-8 and J. Lipid Res. 1999 October;40(10):1747-57. Female Sprague-Dawley rats weighing 150-250 g are separated into groups of […] and fasted overnight. The animals (4-6/group) are dosed perorally with 300 μL test compounds in olive oil or suitable vehicle. Thirty minutes later, 3-5 microCuries ^3H-cholesterol per rat are delivered perorally in 300 μL olive oil. After three hours, 200 μL serum is collected, vortexed with scintillation fluid, and measured for radioactivity in a scintillation counter. Percent inhibition is defined as 100*(1−Ctest/Cctrl), where Ctest and Cctl refer to ^3H levels in serum for the test compound and for the vehicle only control, respectively. Percent inhibition values are reported for a fixed dose. The ED50 is the dose at which the half-maximal effect on serum ^3H levels is observed for a given test compound.
Representative compounds of the invention were tested in the Rat Cholesterol Absorption model above.

Setting [1] is: 1 mg/kg, serum 3H-cholesterol 3 h after cholesterol dose, vs vehicle control.

What is called inhibition in vivo is the relative decrease from the control value, in per cent. In turn, `O=C1[C@H](CC[C@H](O)c2ccc(F)cc2)[C@@H](c2ccc(-c3cccc(S)c3)cc2)N1c1ccc(F)cc1` [Example 119, (3R,4S)-1-(4-fluorophenyl)-3-[(3S)-3-(4-fluorophenyl)-3-hydroxypropyl]-4-(3′-mercaptobiphenyl-4-yl)azetidin-2-one] returned an inhibition in vivo at 1 mg/kg under setting [1] of 56%.
Still for that read-out and setting: for `CCCCOc1cccc(-c2ccc([C@@H]3[C@@H](CC[C@H](O)c4ccc(F)cc4)C(=O)N3c3ccc(F)cc3)cc2)c1` [Example 109, (3R,4S)-4-(3′-butoxybiphenyl-4-yl)-1-(4-fluorophenyl)-3-[(3S)-3-(4-fluorophenyl)-3-hydroxypropyl]azetidin-2-one] the value was 52%.
On the same count and under the same terms, next, `O=C1[C@H](CC[C@H](O)c2ccc(F)cc2)[C@@H](c2ccc(-c3cccc(B(O)O)c3)cc2)N1c1ccc(F)cc1` [Example 115, (4′-{(2S,3R)-1-(4-fluorophenyl)-3-[(3S)-3-(4-fluorophenyl)-3-hydroxypropyl]-4-oxoazetidin-2-yl}biphenyl-3-yl)boronic Acid]: 70%; `CCOc1cccc(-c2ccc([C@@H]3[C@@H](CC[C@H](O)c4ccc(F)cc4)C(=O)N3c3ccc(F)cc3)cc2)c1` [Example 100, (3R,4S)-4-(3′-ethoxybiphenyl-4-yl)-1-(4-fluorophenyl)-3-[(3S)-3-(4-fluorophenyl)-3-hydroxypropyl]azetidin-2-one]: 54%; `O=C1[C@H](CC[C@H](O)c2ccc(F)cc2)[C@@H](c2ccc(-c3cccc([C@@H](O)[C@H]4OC(O)[C@H](O)[C@@H](O)[C@@H]4O)c3)cc2O)N1c1ccccc1` (stereo partly drawn) [Example 74, (6R)-6-C-(4′-{(2S,3R)-3-[(3S)-3-(4-Fluorophenyl)-3-hydroxypropyl]-4-oxo-1-phenylazetidin-2-yl}-3′-hydroxybiphenyl-3-yl)-D-glucopyranose]: 67%.
Same read-out and setting: for `O=Cc1ccc(-c2ccc([C@@H]3[C@@H](CC[C@H](O)c4ccc(F)cc4)C(=O)N3c3ccc(F)cc3)cc2)cc1` [Example 99, 4′-{(2S,3R)-1-(4-fluorophenyl)-3-[(3S)-3-(4-fluorophenyl)-3-hydroxypropyl]-4-oxoazetidin-2-yl}biphenyl-4-carbaldehyde] the value was 38%.
`Nc1cccc(-c2ccc([C@@H]3[C@@H](CC[C@H](O)c4ccc(F)cc4)C(=O)N3c3ccc(F)cc3)cc2)c1` [Example 86, (3R,4S)-4-(3′-aminobiphenyl-4-yl)-1-(4-fluorophenyl)-3-[(3S)-3-(4-fluorophenyl)-3-hydroxypropyl]azetidin-2-one] had an inhibition in vivo at 1 mg/kg under setting [1] of 35%.
With `O=C1[C@H](CC[C@H](O)c2ccc(F)cc2)[C@@H](c2ccc(-c3ccc(CO)cc3)cc2)N1c1ccc(F)cc1` [Example 18], the inhibition in vivo at 1 mg/kg under setting [1] turned out to be 48%.
Broadly, the % inhibition is the relative decrease from the control value, in per cent. Read a high % inhibition as strong suppression. On to `O=C1[C@H](CC[C@H](O)c2ccc(F)cc2)[C@@H](c2ccc(-c3cccc([C@@H]4O[C@H](CO)[C@@H](O)[C@H](O)[C@H]4O)c3)cc2O)N1c1ccccc1` [Example 65, (1S)-1,5-Anhydro-1-(4′-{(2S,3R)-3-[(3S)-3-(4-fluorophenyl)-3-hydroxypropyl]-4-oxo-1-phenylazetidin-2-yl}-3′-hydroxybiphenyl-3-yl)-D-glucitol], for which the “% inhibition at 0.1 mg/kg” value (0.1 mg/kg (footnote 5), serum 3H-cholesterol vs vehicle control) is 60^5%.
Compound `O=C1[C@H](CC[C@H](O)c2ccc(F)cc2)[C@@H](c2ccc(-c3cccc(P(=O)(O)O)c3)cc2)N1c1ccccc1` [Example 122, (4′-{(2S,3R)-3-[(3S)-3-(4-fluorophenyl)-3-hydroxypropyl]-4-oxo-1-phenylazetidin-2-yl}biphenyl-3-yl)phosphonic Acid] displayed an inhibition in vivo at 1 mg/kg under setting [1] of 67%.
As for `O=C1[C@H](CC[C@H](O)c2ccc(F)cc2)[C@@H](c2ccc(-c3cccc(C[C@@H]4O[C@H](CO)[C@@H](O)[C@H](O)[C@H]4O)c3)cc2)N1c1ccc(F)cc1` [Example 117], the “% inhibition at 1 mg/kg” value under setting [1] came out at 26%.
As to `CC(=O)Nc1cccc(-c2ccc([C@@H]3[C@@H](CC[C@H](O)c4ccc(F)cc4)C(=O)N3c3ccc(F)cc3)cc2)c1` [Example 26, N-(4′-{(2S,3R)-1-(4-fluorophenyl)-3-[(3S)-3-(4-fluorophenyl)-3-hydroxypropyl]-4-oxoazetidin-2-yl}biphenyl-3-yl)acetamide], the “% inhibition at 10 mg/kg” value (10 mg/kg (footnote 1), serum 3H-cholesterol vs vehicle control) is recorded as 76^1%.
`COc1ccc(-c2ccc([C@@H]3[C@@H](CC[C@H](O)c4ccc(F)cc4)C(=O)N3c3ccc(F)cc3)cc2)cc1OC` [Example 81, (3R,4S)-4-(3′,4′-dimethoxybiphenyl-4-yl)-1-(4-fluorophenyl)-3-[(3S)-3-(4-fluorophenyl)-3-hydroxypropyl]azetidin-2-one] returned an inhibition in vivo at 1 mg/kg under setting [1] of 17%.
Same read-out and setting: next, `O=Cc1cccc(-c2ccc([C@@H]3[C@@H](CC[C@H](O)c4ccc(F)cc4)C(=O)N3c3ccc(F)cc3)cc2)c1` [Example 13, 4′-{(2S,3R)-1-(4-fluorophenyl)-3-[(3S)-3-(4-fluorophenyl)-3-hydroxypropyl]-4-oxoazetidin-2-yl}biphenyl-3-carbaldehyde]: 70%.
For the compound `O=C1[C@H](CC[C@H](O)c2ccc(F)cc2)[C@@H](c2ccc(-c3ccc([C@@H]4O[C@H](CO)[C@@H](O)[C@H](O)[C@H]4O)cc3)cc2O)N1c1ccccc1` [Example 66, (1S)-1,5-Anhydro-1-(4′-{(2S,3R)-3-[(3S)-3-(4-fluorophenyl)-3-hydroxypropyl]-4-oxo-1-phenylazetidin-2-yl}-3′-hydroxybiphenyl-4-yl)-D-glucitol], the “% inhibition at 0.3 mg/kg” value (0.3 mg/kg (footnote 6), serum 3H-cholesterol vs vehicle control) is 71^6%.
Take `O=C1[C@H](CC[C@H](O)c2ccc(F)cc2)[C@@H](c2ccc(-c3cccc(P(=O)(O)O)c3)cc2O)N1c1ccccc1` [Example 61, (4′-{(2S,3R)-3-[(3S)-3-(4-Fluorophenyl)-3-hydroxypropyl]-4-oxo-1-phenylazetidin-2-yl}-3′-hydroxybiphenyl-3-yl)phosphonic Acid]: the “% inhibition at 5 mg/kg” value (5 mg/kg (footnote 3), serum 3H-cholesterol vs vehicle control) was 58^3%.
As for `O=C1[C@H](CC[C@H](O)c2ccc(F)cc2)[C@@H](c2ccc(-c3cccc([C@@H]4O[C@@H](CO)[C@H](O)[C@@H](O)[C@@H]4O)c3)cc2)N1c1ccc(F)cc1` [Example 113, (1S)-1,5-anhydro-1-(4′-{(2S,3R)-1-(4-fluorophenyl)-3-[(3S)-3-(4-fluorophenyl)-3-hydroxypropyl]-4-oxoazetidin-2-yl}biphenyl-3-yl)-L-glucitol], the inhibition in vivo at 1 mg/kg under setting [1] was found to be 67%.
Same read-out and setting: for `O=C1[C@H](CC[C@H](O)c2ccc(F)cc2)[C@@H](c2ccc(-c3cccc(S(=O)(=O)O)c3)cc2)N1c1ccc(F)cc1` [Example 118, 4′-{(2S,3R)-1-(4-fluorophenyl)-3-[(3S)-3-(4-fluorophenyl)-3-hydroxypropyl]-4-oxoazetidin-2-yl}biphenyl-3-sulfonic Acid] the value was 61%.
Same read-out and setting: for `COC(=O)c1ccc(-c2ccc([C@@H]3[C@@H](CC[C@H](O)c4ccc(F)cc4)C(=O)N3c3ccc(F)cc3)cc2)cc1` [Example 89, methyl 4′-{(2S,3R)-1-(4-fluorophenyl)-3-[(3S)-3-(4-fluorophenyl)-3-hydroxypropyl]-4-oxoazetidin-2-yl}biphenyl-4-carboxylate] the value was 45%; for `O=Cc1ccc(O)cc1-c1ccc([C@@H]2[C@@H](CC[C@H](O)c3ccc(F)cc3)C(=O)N2c2ccc(F)cc2)cc1` [Example 104, 4′-{(2S,3R)-1-(4-fluorophenyl)-3-[(3S)-3-(4-fluorophenyl)-3-hydroxypropyl]-4-oxoazetidin-2-yl}-5-hydroxybiphenyl-2-carbaldehyde], 52%.
